Measured values as given in patent publication US20230312561A1, “SOLID FORMS OF (Z)-METHYL 3-(((4-(N-METHYL-2-(4-METHYLPIPERAZIN-1-YL)ACETAMIDO)PHENYL)AMINO)(PHENYL)METHYLENE)-2-OXO-2,3-DIHYDRO-1H-PYRROLO[2,3-B]PYRIDINE-6-CARBOXYLATE AND SALTS THEREOF” (Angion Biomedica Corp., priority 2020, published 2023).

Experiments:
Format in all cases: physicochemical
[1] = Solid state stability under humid conditions (40° C./75% RH and 25° C./60% RH, two weeks)
Protocol: Stability of Compound 1 Hydrochloride Forms A, B, C, and D was evaluated under humid conditions. Samples of Forms A, B, C, and D were stored at 40° C./75% RH and 25° C./60% RH for a period of two weeks (loosely capped glass vials with approx. 200 mg solid). Solids were then re-analyzed using methods described herein. A summary of the results is provided in Table 12 (after storage at 25° C./60% RH) and Table 13 (after storage at 40° C./75% RH).

[2] = pH-dependent solubility (NaOH titration, pH 3-8); conditions: 25° C.
Protocol: A titration and solubility determination of Compound 1 Hydrochloride Form A (Type 1 Lot) was performed using NaOH over a pH range of 3-8. A solution was produced at 25° C. with magnetic agitation by combining 100 mg Compound 1 Hydrochloride Form A (Type 1 Lot) into 5 mL deionized water to give a concentration of 20 mg/mL within a clean glass vessel. […] The solution was slowly basified using 1.0 N, 0.1 N, and 0.01 N NaOH (with the lower concentrations being used to finely adjust pH close to the end point target pH and avoid overshooting) to achieve pH values of 4, 5, 5.5, 6, 7, and 8. […] The concentration of the test solution was lowered at pH 6 from 20 mg/mL to 5 mg/mL with repeat testing at each concentration to illustrate salt impact. Each pH value was allowed to equilibrate to stability prior to solubility evaluation via HPLC assessment of the clarified liquors. Dilution by 100× or 50× into the working range was performed using deionized water.

[3] = Organic solubility (thermodynamic, 25° C., heating cycle to 75° C.); conditions: for Solubility at 25° C.: 20 volumes; for XRPD after heat/cool cycle: cycle up to 75° C.
Protocol: Compound 1 Hydrochloride Form A (Type 1 Lot) (ca. 50 mg) was equilibrated in a range of organic solvents in order to collect thermodynamic values for solubility. Solvents were charged in 500 μL aliquots (ca. 10 volumes) to the Compound 1 Hydrochloride Form A (Type 1 Lot) dispensed as a powder (ca. 50 mg) in 16 mm diameter glass reaction tubes until dissolution was achieved or up to 1000 μL (ca. 20 volumes) total volume was charged, with observations noted during dosing. The samples were equilibrated at 25° C. for a minimum of 24 hours with stirrer bead agitation.
Samples which remained as suspensions and contained enough solids were split into two equal portions, with one portion isolated by filtration and the resulting damp solids profiled by XRPD. These solids were then dried in vacuo at 45° C. for ca. 16 hours before further profiling. The filtrates from the solvent suspensions were isolated, diluted by 1 in 50 using acetonitrile/water (1:1), and the Compound 1 content determined by HPLC against a single point standard.
The remaining portion of each suspension was subjected to a heating cycle up to 75° C. with equilibration at 10° C. temperature intervals for a minimum of 30 minutes, before allowing to cool naturally to 40° C., followed by equilibration for ca. 16 hours before continuing to cool naturally (approximately 10° C./hr) to 25° C.

[4] = Solution state stability of Compound 1 Hydrochloride (HPLC purity in stressing media, 25° C.)
Protocol: The solution state stability of Compound 1 Hydrochloride Form A (Type 1 Lot) was examined under various storage conditions within a suitable glass vessel with stirrer bead agitation at 25° C. Compound 1 Hydrochloride stock solution ([…]) in HPLC diluent (acetonitrile/water, 1:1) was prepared and 5 mL placed within suitable glass vessels with stirrer bead agitation at 25° C. An aliquot of the appropriate stressing medium (5 mL) was added to achieve a sample concentration of approximately 0.5 mg/mL. The samples were agitated and stored at 25° C. and the solutions assessed for HPLC purity for stability at particular time points.

COC(=O)c1ccc2c(c1)NC(=O)/C2=C(\Nc1ccc(N(C)C(=O)CN2CCN(C)CC2)cc1)c1ccccc1.Cl [Compound 1 Hydrochloride Form A (Type 1 Lot)]
TGA After Storage: further loss above/post 200° C. ([1]; 25° C./60% RH): 100° C., further loss of 0.96%
TGA After Storage: total water content ([1]; 25° C./60% RH): of 10.9%
XRPD After Storage ([1]; 25° C./60% RH): Form A
TGA After Storage: further loss above/post 200° C. ([1]; 40° C./75% RH): 100° C., further loss of 1.05%
TGA After Storage: total water content ([1]; 40° C./75% RH): of 11.18%
TGA After Storage: weight reduction up to 100° C. ([1]; 40° C./75% RH): Weight reduction of 10.13% up to
XRPD After Storage ([1]; 40° C./75% RH): Form A
initial pH reading of solution ([2]; 20 mg/mL in deionized water, stable over 10 minutes): 3.03
Solubility ([2]; pH 3.03, starting concentration 20 mg/mL): >20000 µg/mL
Solubility ([2]; pH 4.0, starting concentration 20 mg/mL): >20000 µg/mL
Solubility ([2]; pH 5.0, starting concentration 20 mg/mL): 16000 µg/mL
Solubility ([2]; pH 5.5, starting concentration 20 mg/mL): 700 µg/mL
Solubility ([2]; pH 6.0, starting concentration 5 mg/mL): 60 µg/mL
Solubility ([2]; pH 6.0, starting concentration 20 mg/mL): 60 µg/mL
Solubility ([2]; pH 7.0, starting concentration 5 mg/mL): 50 µg/mL
Solubility ([2]; pH 8.0, starting concentration 5 mg/mL): 1 µg/mL
Observation after heat/cool cycle [3]: Suspension
XRPD after equilibration at 25° C. ([3]; 2-Butanone): Form C
Solubility at 25° C. ([3]; 2-Butanone): 4.9 µg/mL
XRPD after heat/cool cycle ([3]; 2-Butanone): Form C
XRPD after equilibration at 25° C. ([3]; 2-Propanol): Form C
Solubility at 25° C. ([3]; 2-Propanol): 60 µg/mL
XRPD after heat/cool cycle ([3]; 2-Propanol): Form C
XRPD after equilibration at 25° C. ([3]; Acetone): Form C
Solubility at 25° C. ([3]; Acetone): 14.4 µg/mL
XRPD after heat/cool cycle ([3]; Acetone): Form C
XRPD after equilibration at 25° C. ([3]; Acetonitrile): Form C
Solubility at 25° C. ([3]; Acetonitrile): 170 µg/mL
XRPD after heat/cool cycle ([3]; Acetonitrile): Form C
Solubility at 25° C. ([3]; Anisole): 8.1 µg/mL
XRPD after heat/cool cycle ([3]; Anisole): Unassigned form
XRPD after equilibration at 25° C. ([3]; DMSO): Form A
Solubility at 25° C. ([3]; DMSO): 10820 µg/mL
XRPD after heat/cool cycle ([3]; DMSO): Form A
Solubility at 25° C. ([3]; Dichloromethane): 1750 µg/mL
XRPD after heat/cool cycle ([3]; Dichloromethane): Form C
XRPD after equilibration at 25° C. ([3]; Diethyl ether): Form C
Solubility at 25° C. ([3]; Diethyl ether): 3 µg/mL
XRPD after heat/cool cycle ([3]; Diethyl ether): Form C
XRPD after equilibration at 25° C. ([3]; Ethanol): Form C
Solubility at 25° C. ([3]; Ethanol): 880 µg/mL
XRPD after heat/cool cycle ([3]; Ethanol): Form C
XRPD after equilibration at 25° C. ([3]; Ethyl acetate): Form C
Solubility at 25° C. ([3]; Ethyl acetate): 1.8 µg/mL
XRPD after heat/cool cycle ([3]; Ethyl acetate): Form C
XRPD after equilibration at 25° C. ([3]; Heptane): Form A
Solubility at 25° C. ([3]; Heptane): 2.2 µg/mL
XRPD after heat/cool cycle ([3]; Heptane): Form A
XRPD after equilibration at 25° C. ([3]; Isopropyl acetate): Form C
Solubility at 25° C. ([3]; Isopropyl acetate): 2.8 µg/mL
XRPD after heat/cool cycle ([3]; Isopropyl acetate): Form C
XRPD after equilibration at 25° C. ([3]; MIBK): Form C
Solubility at 25° C. ([3]; MIBK): 1.8 µg/mL
XRPD after heat/cool cycle ([3]; MIBK): Form C
XRPD after equilibration at 25° C. ([3]; Methanol): Form B
Solubility at 25° C. ([3]; Methanol): 4480 µg/mL
XRPD after equilibration at 25° C. ([3]; TBME): Form A
Solubility at 25° C. ([3]; TBME): 2.3 µg/mL
XRPD after equilibration at 25° C. ([3]; Tetrahydrofuran): Form C
Solubility at 25° C. ([3]; Tetrahydrofuran): 12.5 µg/mL
XRPD after heat/cool cycle ([3]; Tetrahydrofuran): Form C
XRPD after equilibration at 25° C. ([3]; Toluene): Form A
Solubility at 25° C. ([3]; Toluene): 0.6 µg/mL
dissolution in organic solvents on heating cycle ([3]; any temperature (25° C.-75° C.), any solvent tested): Full or partial dissolution was not observed
XRPD after equilibration at 25° C. ([3]; n-Butyl acetate): Form C
Solubility at 25° C. ([3]; n-Butyl acetate): 0.7 µg/mL
XRPD after heat/cool cycle ([3]; n-Butyl acetate): Form C
HPLC (%) ([4]; 1 M HCl, 1 h): 99.53%
HPLC (%) ([4]; 1 M HCl, 6 h): 99.29%
HPLC (%) ([4]; 1 M HCl, 24 h): 96.56%
HPLC (%) ([4]; 1 M HCl, 3 d): 95.63%
HPLC (%) ([4]; 1 M HCl, 7 d): 90.58%
HPLC (%) ([4]; 1 M NaOH, 1 h): 0.49%
HPLC (%) ([4]; 1 M NaOH, 6 h): 0.65%
HPLC (%) ([4]; 5% H2O2, 1 h): 80.39%
HPLC (%) ([4]; 5% H2O2, 6 h): 46.74%
HPLC (%) ([4]; 5% H2O2, 24 h): 0.42%
HPLC (%) ([4]; Control (water), 1 h): 99.68%
HPLC (%) ([4]; Control (water), 6 h): 99.69%
HPLC (%) ([4]; Control (water), 24 h): 99.54%
HPLC (%) ([4]; Control (water), 3 d): 99.42%
HPLC (%) ([4]; Control (water), 7 d): 99.50%
